Laboratory results from US20240245711A1, “A 19-NOR C3,3-DISUBSTITUTED C21-N-PYRAZOLYL STEROID FOR THE TREATMENT OF MAJOR DEPRESSIVE DISORDER” (Sage Therapeutics, Inc., priority 2021, published 2024).
“And” between values parts separate entries of the source, which are not always exact repeats. Identical values can stand only once.

Test system: adult subjects with Major Depressive Disorder
Assay: Phase 3 open-label 1-year study: HAM-D total score, response and remission
Type: in vivo, human
From the text: Secondary Objective: To assess the need for re-treatment with Compound (1) following initial treatment in adults with MDD currently experiencing an MDE over a 1-year period, and to assess the response of initial treatment and re-treatment(s) with Compound (1) following an initial 2-week treatment period in adults with MDD currently experiencing an MDE over a 1-year period.
Secondary Endpoints: The need for re-treatment with Compound (1) as assessed by: time to first re-treatment (Kaplan-Meier curves), number of subjects achieving the requirements for re-treatment, number of re-treatment cycles for each subject, the response of initial treatment and/or re-treatment as assessed by: change from baseline in the 17-item Hamilton Rating Scale for Depression (HAM-D) total score at the end of each 14-day treatment (initial and/or re-treatment) period, HAM-D response at the end of each 14-day treatment (initial and/or re-treatment) period, defined as a ≥50% reduction in HAM-D score from baseline, HAM-D remission at the end of each 14-day treatment (initial and/or re-treatment) period, defined as HAM-D total score≤7, Clinical Global Impression-Improvement (CGI-I) response, defined as “much improved” or “very much improved”, at the end of each 14-day treatment (initial and/or re-treatment) period, change from baseline in Clinical Global Impression-Severity (CGI-S) score at the end of each 14-day treatment (initial and/or re-treatment) period.
Study Population: Subjects were 18-75 years old, diagnosed with major depressive disorder (MDD) with a MADRS total score of ≥28 and a HAM-D total score of ≥20 at Screening and Day 1 (prior to dosing).
Treatment Groups: The 30 mg and 50 mg dose groups were separated by time of enrollment. The study is comprised of two cohorts: one with Compound (1) 30 mg as a starting dose (30 mg Cohort: n=725), an initial cohort with Compound (1) 50 mg as a starting dose (50 mg Cohort: n=199). A patient receiving Compound (1) 30 mg could be dose reduced to 20 mg and patients receiving Compound (1) 50 mg could be dose reduced to 40 mg (based on tolerability). In all cohorts, Compound (1) is self-administered by patients as an oral therapy once nightly with food for 14 days.
Eligible subjects were given Compound (1)—to be taken at home in the evening with meal.
The cohorts pertaining to the different doses that the subjects received were defined as following: • 50 mg cohort: This cohort includes subjects who have initiated treatment with 50 mg and received re-treatment with 50 mg only. • 30 mg cohort: This cohort includes subjects who have initiated treatment with 30 mg regardless of the dose they have received in re-treatments. • Low dose cohort: This cohort includes subjects who have initiated treatment with 30 mg and received re-treatment with 30 mg only. • Dose switch cohort: This cohort includes subjects who have received initial treatment with 30 mg and at least one subsequent re-treatment with 50 mg. • Study Period X: starts on the date of the first dose of Compound (1) in cycle X and goes up to one day prior to the first dose of the next cycle. In some embodiments, X is any number from 1 to 5. • Treatment Period X: starts on the date of the first dose of Compound (1) in cycle X and goes up to one day after the last dose in cycle X. In some embodiments, X is any number from 1 to 5. • Treatment Cycle X: starts on the date of the first dose of Compound (1) in cycle X and goes up to 14 days after the last dose in cycle X. The treatment cycles may be denoted as C1-C5. • Observation period X: starts the day after Treatment Cycle X ends and goes up to one day prior to the start of next treatment cycle. In some embodiments, X is any number from 1 to 5.
Analysis Sets: The safety set was defined as all subjects who were administered study drug. The period-specific safety set includes subjects in the safety set who were administered study drug in the corresponding treatment cycle. […]

[1] = Study Period 1, safety set, 30 mg Cohort (N = 725), Day 126
[2] = Study Period 1, safety set, 50 mg Cohort (N = 199), Day 8
[3] = Study Period 1, safety set, 50 mg Cohort (N = 199), Day 15
[4] = Study Period 1, safety set, 50 mg Cohort (N = 199), Day 28
[5] = Study Period 1, safety set, 50 mg Cohort (N = 199), Day 70
[6] = Study Period 1, safety set, 50 mg Cohort (N = 199), Day 126
[7] = baseline HAM-D score ≥24, Study Period 1, 30 mg Cohort (N = 458), Day 8
[8] = baseline HAM-D score ≥24, Study Period 1, 30 mg Cohort (N = 458), Day 15
[9] = baseline HAM-D score ≥24, Study Period 1, 30 mg Cohort (N = 458), Day 28
[10] = baseline HAM-D score ≥24, Study Period 1, 30 mg Cohort (N = 458), Day 70
[11] = baseline HAM-D score ≥24, Study Period 1, 30 mg Cohort (N = 458), Day 126
[12] = baseline HAM-D score ≥24, Study Period 1, 50 mg Cohort (N = 127), Day 8
[13] = baseline HAM-D score ≥24, Study Period 1, 50 mg Cohort (N = 127), Day 15

SMILES: C[C@@]1(O)CC[C@H]2[C@H](CC[C@@H]3[C@@H]2CC[C@]2(C)[C@@H](C(=O)Cn4cc(C#N)cn4)CC[C@@H]32)C1 [Compound (1), 1-(2-((3R,5R,8R,9R,10S,13S,14S,17S)-3-hydroxy-3,13-dimethylhexadecahydro-1H-cyclopenta[a]phenanthren-17-yl)-2-oxoethyl)-1H-pyrazole-4-carbonitrile]
- HAM-D Response [1]: 144/203 (70.9%)
- HAM-D total score, Mean % CFB ± SD [1]: −62.3 ± 30.36%
- HAM-D total score, Mean CFB ± SD [1]: −15.7 ± 8.07
- HAM-D Remission [2]: 37/193 (19.2%)
- HAM-D Response [2]: 97/193 (50.3%)
- HAM-D total score, Mean % CFB ± SD [2]: −49.2 ± 22.41%
- HAM-D total score, Mean CFB ± SD [2]: −12.3 ± 5.79
- HAM-D total score, Mean % CFB ± SD [3]: −63.6 ± 22.70%
- HAM-D total score, Mean CFB ± SD [3]: −16±6.0 and −16.0±6.04
- HAM-D Remission [4]: 72/191 (37.7%)
- HAM-D Response [4]: 120/191 (62.8%)
- HAM-D total score, Mean % CFB ± SD [4]: −58.3 ± 26.05%
- HAM-D total score, Mean CFB ± SD [4]: −14.6 ± 6.75
- HAM-D Remission [5]: 41/118 (34.7%)
- HAM-D Response [5]: 69/118 (58.5%)
- HAM-D total score, Mean % CFB ± SD [5]: −53.7 ± 28.40%
- HAM-D total score, Mean CFB ± SD [5]: −13.6 ± 7.45
- HAM-D Remission [6]: 19/30 (63.3%)
- HAM-D Response [6]: 22/30 (73.3%)
- HAM-D total score, Mean % CFB ± SD [6]: −65.2 ± 33.96%
- HAM-D total score, Mean CFB ± SD [6]: −16.3 ± 9.06
- HAM-D Remission [7]: 70/446 (15.7%)
- HAM-D Response [7]: 192/446 (43.0%)
- HAM-D total score, Mean % CFB ± SD [7]: −43.3 ± 25.63%
- HAM-D total score, Mean CFB ± SD [7]: −12.0 ± 7.17
- HAM-D Remission [8]: 164 (37.9%) and 164/433 (37.9%)
- HAM-D Response [8]: 319 (73.7%) and 319/433 (73.7%)
- HAM-D total score, Mean % CFB ± SD [8]: −60.9 ± 25.50%
- HAM-D total score, Mean CFB ± SD [8]: −16.9 ± 7.34
- HAM-D Remission [9]: 132/431 (30.6%)
- HAM-D Response [9]: 250/431 (58.0%)
- HAM-D total score, Mean % CFB ± SD [9]: −53.9 ± 28.59%
- HAM-D total score, Mean CFB ± SD [9]: −15.0 ± 8.27
- HAM-D Remission [10]: 70/247 (28.3%)
- HAM-D Response [10]: 125/247 (50.6%)
- HAM-D total score, Mean % CFB ± SD [10]: −49.2 ± 32.86%
- HAM-D total score, Mean CFB ± SD [10]: −13.8 ± 9.39
- HAM-D Remission [11]: 58/120 (48.3%)
- HAM-D Response [11]: 90/120 (75.0%)
- HAM-D total score, Mean % CFB ± SD [11]: −66.0 ± 28.29%
- HAM-D total score, Mean CFB ± SD [11]: −18.2 ± 7.88
- HAM-D Remission [12]: 18/122 (14.8%)
- HAM-D Response [12]: 61/122 (50.0%)
- HAM-D total score, Mean % CFB ± SD [12]: −49.3 ± 21.32%
- HAM-D total score, Mean CFB ± SD [12]: −13.3 ± 5.87
- HAM-D Remission [13]: 44 (37.3%) and 44/118 (37.3%)
- HAM-D Response [13]: 94 (79.7%) and 94/118 (79.7%)
- HAM-D total score, Mean % CFB ± SD [13]: −64.1 ± 21.73%
- HAM-D total score, Mean CFB ± SD [13]: −17.4 ± 6.05
- HAM-D Remission (baseline HAM-D score ≥24, Study Period 1, 50 mg Cohort (N = 127), Day 28): 41/120 (34.2%)
